Reference: patent US20130252983A1, “ACTIVATING PHOSPHORYLATION SITE ON GLUTAMINASE C” (CORNELL UNIVERSITY, priority 2010, published 2013)
Residue numbers refer to the chain shown, from its start. Entries after “also recorded” stand apart in the source; their conditions may differ.

Legend:
[1] = system: NIH 3T3 cells stably expressing Cdc42(F28L), Rac(F28L), RhoC(F30L); experiment: Soft-agar colony formation of cells expressing activated Rho GTPase mutants; type: cell-based, mouse; details: 10 μM, 14 days
Method: (§1) FIGS. 2A-G illustrate effects of 968 on the transforming activity of constitutively active Rho GTPases and human breast cancer cells. […] Cells were scored after 14 days and plotted as the percentage of the total number of colonies greater than 50 μm in diameter. Data represent the average of 3 experiments (±s.d.). […] Data represent the average of 3 experiments (±s.d.). […] Data represent the average of 3 experiments (±s.d.). […] After 24 hours at 37° C., the migratory cells were fixed, stained with GIEMSA, and counted. Data represent the average of 3 experiments (±s.d.). […] Data represent the average of 3 experiments (±s.d.). […] Data represent the average of 3 experiments (±s.d.). […] Data represent the average of 3 experiments (±s.d.).

SKBR3 cells = experiment: Soft-agar colony formation, SKBR3; type: cell-based, human; details: 10 μM
Method: as §1

V5-tagged wild-type GAC = molecular target: T1, V5-tagged wild-type GAC (Mus musculus, UniProt D3Z7P3); experiment: Glutaminase activity of V5-GAC immunoprecipitated from treated Dbl-transformed cells; type: cell-based; details: 10 μM, 48 hours
T1 construct: expressed in transfected cells; host or cells: NIH 3T3 cells (stably expressing Dbl, or parental), transient transfection
T1 sequence (D3Z7P3 55-603 isoform D3Z7P3-2 limits assumed): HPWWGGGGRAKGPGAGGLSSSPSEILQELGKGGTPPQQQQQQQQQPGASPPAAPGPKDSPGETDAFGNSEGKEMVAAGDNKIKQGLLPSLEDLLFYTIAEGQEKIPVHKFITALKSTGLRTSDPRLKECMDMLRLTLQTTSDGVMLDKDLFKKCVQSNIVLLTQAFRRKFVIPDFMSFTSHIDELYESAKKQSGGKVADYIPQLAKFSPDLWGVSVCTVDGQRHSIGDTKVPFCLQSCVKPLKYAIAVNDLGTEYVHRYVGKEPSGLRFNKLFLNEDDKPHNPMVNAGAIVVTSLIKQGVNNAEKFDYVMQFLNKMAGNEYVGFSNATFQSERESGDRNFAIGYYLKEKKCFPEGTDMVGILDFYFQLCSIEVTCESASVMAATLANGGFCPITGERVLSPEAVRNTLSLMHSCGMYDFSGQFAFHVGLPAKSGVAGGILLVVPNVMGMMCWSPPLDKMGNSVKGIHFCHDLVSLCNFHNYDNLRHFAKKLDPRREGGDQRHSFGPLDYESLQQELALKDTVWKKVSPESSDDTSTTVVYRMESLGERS
Description: FIGS. 4A-E illustrate the role of glutaminase C activity in cellular transformation. […] Data represent the average of 3 experiments (±s.d.). […] Data represent the average of 3 experiments (±s.d.). […] 100% represents the activity measured in untreated Dbl-transformed cells. The data represent the average of 2 experiments. […] 100% represents the activity measured in untreated SKBR3 cells. The data represent the average of 2 experiments. […] Data represent the average of 3 experiments (±s.d.).
NIH 3T3 cells stably expressing oncogenic Dbl were transiently transfected with DNA encoding VS-tagged GAC, and cells were treated with either 968 or BA-968 (10 μM) as indicated for 48 hours. The cells were then harvested and the ectopically expressed GAC was isolated by immunoprecipitation via the V5 tag. The samples were then assayed for glutaminase activity in the absence of phosphate (top panel) and the relative expression levels of V5-GAC was determined by Western blotting using an anti-V5 antibody (bottom panel).
Next the effect of the substitution of an alanine for a serine at amino acid 103 on the enzymatic activity of GAC was examined, as well as its sensitivity to the small molecule, 968. […] Following transfection, the cells were treated for 48 hours with 968 (10 μM) and then harvested. […]

[2] = system: GACΔC (C-terminal truncation mutant of GAC); experiment: Glutaminase activity of immunoprecipitated GACΔC from treated Dbl-transformed cells; type: cell-based, mouse; details: 10 μM, 48 hours
GAC (S103A) = molecular target: T2, GAC (S103A) (Mus musculus, UniProt D3Z7P3, S103A); experiment: Glutaminase activity of immunoprecipitated GAC (S103A) from treated Dbl-transformed cells; type: cell-based; details: 10 μM, 48 hours
T2 construct: expressed in transfected cells; host or cells: Dbl-transformed NIH 3T3 cells
T2 sequence (D3Z7P3 55-603 isoform D3Z7P3-2 S103A): T1 sequence (D3Z7P3 55-603 isoform D3Z7P3-2 limits assumed) with S49A
Method: Next the effect of the substitution of an alanine for a serine at amino acid 103 on the enzymatic activity of GAC was examined, as well as its sensitivity to the small molecule, 968. […] Following transfection, the cells were treated for 48 hours with 968 (10 μM) and then harvested. The different GAC proteins were then isolated by immunoprecipitation and assayed for their glutaminase activity in the absence (i.e., basal activity) and presence of phosphate (FIG. 24). […] Initially, the high glutaminase activity of the GAC (S103A) mutant was surprising as it had been predicted that this phospho-defective mutant should have a reduced enzymatic activity. […] When this hydrogen bond is broken, either by mutating the serine to an alanine or upon the phosphorylation of this serine residue, GAC transitions to an active conformation. […] Thus, Serine 103 plays a critical role in the regulation of the glutaminase activity of GAC.

CN(C)c1ccc(C2Nc3ccc4ccccc4c3C3=C2C(=O)CC(C)(C)C3)cc1Br (stereo not drawn) [Compound 968, 5-[3-bromo-4-(dimethylamino)phenyl]-2,2-dimethyl-2,3,5,6-tetrahydrobenzo[a]]
colony formation in soft-agar [1]: blocking their ability
colony formation in soft agar (SKBR3 cells): inhibits the ability
basal glutaminase activity of wild-type GAC (V5-tagged wild-type GAC): susceptible to treatment
GA activity of immunoprecipitated V5-GAC (V5-tagged wild-type GAC; absence of phosphate): inhibited; also recorded: effective inhibitors of GAC activity
basal activity of GACΔC [2]: not further reduced
glutaminase activity of GAC (S103A) (GAC (S103A)): not affected
